Results from patent publication US9533952B2, “N-prop-2-ynyl carboxamide derivatives and their use as TRPA1 antagonists” (Orion Corporation, priority 2012, dated 2017).

Target: TRPA1 (Homo sapiens, UniProt O75762)
Experiment: Determination of TRPA1 activity in vitro (TRPA1 antagonism in vitro)
Type: cell-based
Conditions: procedure of Wei et al., Anesthesiology 111 (2009) 147-154

Chain of TRPA1 (O75762 whole entry): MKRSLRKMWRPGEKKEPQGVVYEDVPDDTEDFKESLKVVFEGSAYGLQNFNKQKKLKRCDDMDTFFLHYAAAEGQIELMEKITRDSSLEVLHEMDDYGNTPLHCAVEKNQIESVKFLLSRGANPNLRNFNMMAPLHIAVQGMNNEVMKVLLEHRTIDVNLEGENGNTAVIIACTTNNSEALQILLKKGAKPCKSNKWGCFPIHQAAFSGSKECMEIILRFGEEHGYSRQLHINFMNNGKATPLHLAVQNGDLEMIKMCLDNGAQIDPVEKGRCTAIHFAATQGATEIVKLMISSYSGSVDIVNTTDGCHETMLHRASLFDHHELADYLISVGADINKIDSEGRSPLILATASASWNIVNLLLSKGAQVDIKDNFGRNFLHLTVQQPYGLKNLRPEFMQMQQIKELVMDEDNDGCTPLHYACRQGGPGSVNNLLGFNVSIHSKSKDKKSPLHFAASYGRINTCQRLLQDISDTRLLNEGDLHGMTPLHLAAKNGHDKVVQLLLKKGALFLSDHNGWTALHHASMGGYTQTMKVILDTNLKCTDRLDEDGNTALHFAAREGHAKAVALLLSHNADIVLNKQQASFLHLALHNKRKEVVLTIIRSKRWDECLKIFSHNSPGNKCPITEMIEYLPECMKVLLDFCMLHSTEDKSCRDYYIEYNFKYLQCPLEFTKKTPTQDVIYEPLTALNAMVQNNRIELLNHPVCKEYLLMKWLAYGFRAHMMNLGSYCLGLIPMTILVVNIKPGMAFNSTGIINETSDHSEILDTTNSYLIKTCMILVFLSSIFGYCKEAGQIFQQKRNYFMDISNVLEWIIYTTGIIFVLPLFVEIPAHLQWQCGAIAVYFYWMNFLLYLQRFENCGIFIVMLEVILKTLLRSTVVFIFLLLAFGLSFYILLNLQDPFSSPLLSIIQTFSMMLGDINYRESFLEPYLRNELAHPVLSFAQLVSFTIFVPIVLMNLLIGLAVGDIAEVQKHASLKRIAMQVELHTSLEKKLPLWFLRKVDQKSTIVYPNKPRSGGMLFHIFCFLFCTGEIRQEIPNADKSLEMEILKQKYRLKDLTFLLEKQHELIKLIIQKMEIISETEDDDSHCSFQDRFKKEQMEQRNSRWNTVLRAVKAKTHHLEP

| Structure (SMILES) | IC50 [µM] |
| --- | --- |
| C#CC(C)(C)NC(=O)c1cc(OC)ccc1NCCCC(F)(F)F [Example 96, 5-Methoxy-N-(2-methylbut-3-yn-2-yl)-2-(4,4,4-trifluorobutylamino)-benzamide] | 3.7 |
| C#CC(C)(CC)NC(=O)c1cc(F)ccc1NCCCC (stereo not drawn) [Example 102, 2-(Butylamino)-5-fluoro-N-(3-methylpent-1-yn-3-yl)benzamide] | 0.3 |
| C#CC(CC)(CC)NC(=O)c1cc(F)ccc1NCC [Example 103, 2-(Ethylamino)-N-(3-ethylpent-1-yn-3-yl)-5-fluorobenzamide] | 1.8 |
| C#CC(C)(C)NC(=O)c1cc(F)ccc1NCCC(F)(F)F [Example 104, 5-Fluoro-N-(2-methylbut-3-yn-2-yl)-2-(3,3,3-trifluoropropylamino)benzamide] | 1.7 |
| C#CC(C)(C)NC(=O)c1ccc(C(F)(F)F)nc1NCC(C)C [Example 105] | 0.7 |
| C#CC(C)(C)NC(=O)c1ccc(C(F)(F)F)nc1NC(C)C [Example 106, 2-(Isopropylamino)-N-(2-methylbut-3-yn-2-yl)-6-(trifluoromethyl)-nicotinamide] | 1.3 |
| C#CC(C)(C)NC(=O)c1ccc(C(F)(F)F)nc1NCC [Example 107, 2-(Ethylamino)-N-(2-methylbut-3-yn-2-yl)-6-(trifluoromethyl)-nicotinamide] | 3.7 |
| C#CC(C)(C)NC(=O)c1cnc(C(F)(F)F)nc1NC(C)(C)C [Example 108, 4-(tert-Butylamino)-N-(2-methylbut-3-yn-2-yl)-2-(trifluoromethyl)pyrimidine-5-carboxamide] | 5 |
| C#CC(C)(C)NC(=O)c1cnc(C(F)(F)F)nc1NC(C)(C)CC [Example 109, N-(2-Methylbut-3-yn-2-yl)-4-(tert-pentylamino)-2-(trifluoromethyl)-pyrimidine-5-carboxamide] | 5.1 |
| C#CC(C)(C)NC(=O)c1cnc(C(F)(F)F)nc1NC(C)C [Example 110, 4-(Isopropylamino)-N-(2-methylbut-3-yn-2-yl)-2-(trifluoromethyl)-pyrimidine-5-carboxamide] | 12 |
| C#CC(C)(C)NC(=O)c1ccc(C(F)(F)F)nc1NC(C)(C)C [Example 111, 2-(tert-Butylamino)-N-(2-methylbut-3-yn-2-yl)-6-(trifluoromethyl)-nicotinamide] | 2.4 |
| C#CC(C)(C)NC(=O)c1cc(F)c(N2CCOCC2)nc1NC(C)C [Example 114, 5-Fluoro-2-(isopropylamino)-N-(2-methylbut-3-yn-2-yl)-6-morpholinonicotinamide] | 4.3 |
| C#CC(C)(C)NC(=O)c1ccc(C(F)(F)F)nc1NC1CCOCC1 [Example 115, N-(2-Methylbut-3-yn-2-yl)-2-(tetrahydro-2H-pyran-4-ylamino)-6-(trifluoromethyl)nicotinamide] | 4.8 |
| C#CC(C)(C)NC(=O)c1ccc(C(F)(F)F)nc1NCC1CCOCC1 [Example 116, N-(2-Methylbut-3-yn-2-yl)-2-((tetrahydro-2H-pyran-4-yl)methyl-amino)-6-(trifluoromethyl)nicotinamide] | 1.6 |
| C#CC(C)(C)NC(=O)c1ccc(C(F)(F)F)nc1NC1CC1 [Example 117, 2-(Cyclopropylamino)-N-(2-methylbut-3-yn-2-yl)-6-(trifluoromethyl)-nicotinamide] | 2.3 |
| C#CC(CC)(CC)NC(=O)c1cccc2c1NCCC2 [Example 120, N-(3-Ethylpent-1-yn-3-yl)-1,2,3,4-tetrahydroquinoline-8-carboxamide] | 8.3 |
| C#CC(C)(C)NC(=O)c1cccnc1Nc1ccccc1F [Example 122, 2-(2-Fluorophenylamino)-N-(2-methylbut-3-yn-2-yl)nicotinamide] | 4.8 |
| C#CC(C)(C)NC(=O)c1cccnc1NC1CCC(F)(F)CC1 [Example 123, 2-(4,4-Difluorocyclohexylamino)-N-(2-methylbut-3-yn-2-yl)nicotinamide] | 3.8 |
| C#CC(C)(C)NC(=O)c1cscc1NCCC [Example 126, N-(2-Methylbut-3-yn-2-yl)-4-(propylamino)thiophene-3-carboxamide] | 8 |
| C#CC(C)(C)NC(=O)c1cccnc1Nc1ccccc1 [Example 127, N-(2-Methylbut-3-yn-2-yl)-2-(phenylamino)nicotinamide] | 4.4 |
| C#CC(C)(C)NC(=O)c1cc(C(F)(F)F)cnc1NC(C)(C)C [Example 128, 2-(tert-Butylamino)-N-(2-methylbut-3-yn-2-yl)-5-(trifluoromethyl)-nicotinamide] | 1.1 |
| C#CC(C)(C)NC(=O)c1cc(Cl)cnc1Nc1ccccc1 [Example 129, 5-Chloro-N-(2-methylbut-3-yn-2-yl)-2-(phenylamino)nicotinamide] | 0.7 |
| C#CC(C)(C)NC(=O)c1ccsc1NCCCC [Example 130, 2-(Butylamino)-N-(2-methylbut-3-yn-2-yl)thiophene-3-carboxamide] | 2.1 |
| C#CC(C)(C)NC(=O)c1cncnc1NCC(F)(F)C(F)(F)F [Example 132, N-(2-Methylbut-3-yn-2-yl)-4-(2,2,3,3,3-pentafluoropropylamino)-pyrimidine-5-carboxamide] | 13.8 |

Continued, values first:

| IC50 [µM] | Structure (SMILES) |
| --- | --- |
| 14 | C#CC(C)(C)NC(=O)c1cccnc1NCc1cccc(OC)c1 [Example 97, 2-(3-Methoxybenzylamino)-N-(2-methylbut-3-yn-2-yl)nicotinamide] |
| 5.3 | C#CC(C)(C)NC(=O)c1cccnc1NCc1cccc(F)c1 [Example 98, 2-(3-Fluorobenzylamino)-N-(2-methylbut-3-yn-2-yl)nicotinamide] |
| 6.6 | C#CC(C)(C)NC(=O)c1cccnc1NCCCC [Example 100, 2-(Butylamino)-N-(2-methylbut-3-yn-2-yl)nicotinamide] |
| 11.9 | C#CC(C)(C)NC(=O)c1cccnc1NC(C)(C)C [Example 101, 2-(tert-Butylamino)-N-(2-methylbut-3-yn-2-yl)nicotinamide] |
| 3.4 | C#CC(C)(C)NC(=O)c1ccc(Cl)nc1NC(C)C [Example 112, 6-Chloro-2-(isopropylamino)-N-(2-methylbut-3-yn-2-yl)nicotinamide] |
| 7.2 | C#CC(C)(C)NC(=O)c1ccc(Cl)nc1NCC [Example 113, 6-Chloro-2-(ethylamino)-N-(2-methylbut-3-yn-2-yl)nicotinamide] |
| 12.9 | C#CC(C)(C)NC(=O)c1cccc2c(C)c(C)[nH]c12 [Example 118, 2,3-Dimethyl-N-(2-methylbut-3-yn-2-yl)-1H-indole-7-carboxamide] |
| 18.7 | C#CC(CC)(CC)NC(=O)c1cccc2cc[nH]c12 [Example 119, N-(3-Ethylpent-1-yn-3-yl)-1H-indole-7-carboxamide] |
| 1.1 | C#CC(C)(C)NC(=O)c1cccnc1Nc1cccc(F)c1 [Example 121, 2-(3-Fluorophenylamino)-N-(2-methylbut-3-yn-2-yl)nicotinamide] |
| 0.5 | C#CC(C)(C)NC(=O)c1cc(Br)ccc1NCCC [Example 124, 5-Bromo-NV-(2-methylbut-3-yn-2-yl)-2-(propylamino)benzamide] |
| 4.6 | C#CC(C)(C)NC(=O)c1cccnc1NC(C)(C)C(F)(F)F [Example 125, N-(2-Methylbut-3-yn-2-yl)-2-(1,1,1-trifluoro-2-methylpropan-2-ylamino)nicotinamide] |
| 1.4 | C#CC(C)(C)NC(=O)c1cccnc1Nc1ccc(F)cc1 [Example 131, 2-(4-Fluorophenylamino)-N-(2-methylbut-3-yn-2-yl)nicotinamide] |
